Among the test systems are Escherichia coli; Staphylococcus aureus; Bacillus anthracis; Bacillus cereus; Acinetobacter baumannii; Escherichia coli AB94012; Klebsiella pneumoniae; Streptococcus pneumoniae; Serratia marcescens; Pseudomonas aeruginosa; Enterococcus faecalis; Enterococcus faecium; Staphylococcus aureus MR; Escherichia coli DC2; Escherichia coli UB1005.
Holding throughout (test): ≥ marks a high value that may be exact or a test limit, other limits are often not marked, values filed in µg/mL are converted to µM
The test system of assay [1] is Staphylococcus epidermidis RP62A/1.
Assay [2] has as its system Staphylococcus aureus ATCC 29213.
Assay [3] deals with Staphylococcus epidermidis RP62A.
The test system of assay [4] is Escherichia coli ATCC 25726.
The test system of assay [5] is Pseudomonas aeruginosa ATCC 27853.
For assay [6], the system named is Proteus mirabilis ATCC 25933.
Assay [7] deals with Candida albicans ATCC 90028.
Assay [8] relates to Staphylococcus aureus ATCC 25923.
For assay [9], the system named is Klebsiella pneumoniae ATCC 700603.
Assay [10] concerns Stenotrophomonas maltophilia.
The test system of assay [11] is Pseudomonas aeruginosa AB93066.
For assay [12], the system named is Staphylococcus aureus ATCC 6538.
Assay [13] has as its system Staphylococcus aureus AB94004.
In assay [14] the test system is Staphylococcus aureus P1381.
Assay [15] deals with Staphylococcus aureus P1374.
Assay [16] has as its system Escherichia coli ATCC 25922.
The subject of assay [17] is Pseudomonas aeruginosa ATCC 9027.
The test system of assay [18] is Staphylococcus epidermidis C621.
The test system of assay [19] is Corynebacterium xerosis C875.

The results in this text go back to DBAASP.

Values after ≈ are worked out from the molar mass of the structure shown.

With `CC[C@H](C)[C@H](NC(=O)[C@H](CC(C)C)NC(=O)[C@H](C)NC(=O)[C@@H]1CCCN1C(=O)[C@H](C)NC(=O)[C@@H](NC(=O)[C@H](CCCCN)NC(=O)[C@@H](N)CCCN=C(N)N)C(C)C)C(=O)N[C@@H](CCCCN)C(=O)N[C@@H](CO)C(=O)N[C@@H](Cc1ccccc1)C(=O)N[C@H](C(=O)N[C@@H](Cc1ccccc1)C(=O)N[C@@H](CC(C)C)C(=O)N[C@@H](Cc1ccccc1)C(=O)N[C@@H](CCCCN)C(=O)N[C@@H](Cc1ccccc1)C(=O)N[C@@H](CCCCN)C(=O)N[C@@H](CCCCN)C(=O)NCC(=O)O)C(C)C` [RKVAPALIKSFVFLFKFKKG], the MIC in the assay with Escherichia coli was above 110 µM; against Staphylococcus aureus, 55.1 µM (≈ 128 µg/mL); against Bacillus anthracis, at least 110 µM; against Bacillus cereus, at least 110 µM.
Take `CC(C)C[C@H](NC(=O)[C@H](C)NC(=O)[C@H](CO)NC(=O)[C@H](Cc1ccccc1)NC(=O)[C@@H](NC(=O)[C@H](CO)NC(=O)[C@@H]1CCCN1C(=O)[C@@H](NC(=O)[C@@H](NC(=O)[C@H](CCCCN)NC(=O)[C@H](CO)NC(=O)[C@H](C)NC(=O)[C@H](CC(C)C)NC(=O)[C@H](CCCCN)NC(=O)[C@H](Cc1ccccc1)NC(=O)[C@@H](NC(=O)[C@H](Cc1ccccc1)NC(=O)[C@@H](N)CO)C(C)C)C(C)C)C(C)C)C(C)C)C(=O)N[C@H](C(=O)N[C@@H](CCCN=C(N)N)C(=O)O)[C@@H](C)O` [SFVFKLASKVVPSVFSALTR]: the MIC against Escherichia coli was 117 µM; against Staphylococcus aureus, 117 µM; against Bacillus anthracis it was at least 58.6 µM; against Bacillus cereus, at least 117 µM.
With `CC[C@H](C)[C@H](N)C(=O)N[C@@H](CCCCN)C(=O)N[C@@H](CC(C)C)C(=O)N[C@@H](CO)C(=O)N[C@@H](CCCCN)C(=O)N[C@@H](CCCCN)C(=O)N[C@H](C(=O)N[C@@H](CCCCN)C(=O)N[C@@H](CC(=O)O)C(=O)N[C@@H](CC(N)=O)C(=O)N[C@@H](CC(C)C)C(=O)N[C@@H](CCCCN)C(=O)N[C@@H](CCCCN)C(=O)N[C@H](C(=O)N[C@@H](CC(C)C)C(=O)N[C@@H](CCCCN)C(=O)NCC(=O)N[C@@H](C)C(=O)N[C@H](C(=O)N[C@@H](CCCCN)C(=O)NCC(=O)N[C@@H](C)C(=O)N[C@H](C(=O)N[C@@H](C)C(=O)N[C@H](C(=O)N[C@@H](C)C(=O)N[C@@H](CCCCN)C(=O)N[C@@H](CCSC)C(=O)N[C@H](C(N)=O)C(C)C)C(C)C)[C@@H](C)CC)[C@@H](C)CC)C(C)C)[C@@H](C)O` [IKLSKKTKDNLKKVLKGAIKGAIAVAKMV], the MIC in assay [1] came out at 0.8 µM (≈ 2.48 µg/mL); in assay [2] it was 3.1 µM (≈ 9.59 µg/mL); in assay [3], 1.6 µM (≈ 4.95 µg/mL); against Acinetobacter baumannii it was 3.1 µM (≈ 9.59 µg/mL); in [4], 3.1 µM (≈ 9.59 µg/mL); in assay [5], 12.5 µM (≈ 38.7 µg/mL). Further, the MIC in assay [6] was at least 100 µM; in assay [7], at least 100 µM; in assay [8] it was 3.1 µM (≈ 9.59 µg/mL); in assay [9], 6.25 µM (≈ 19.3 µg/mL); in assay [10], 1.6 µM (≈ 4.95 µg/mL).
In the case of `CC[C@H](C)[C@H](NC(=O)[C@H](CO)NC(=O)[C@H](CCCCN)NC(=O)[C@@H](NC(=O)CNC(=O)[C@H](CCCCN)NC(=O)[C@H](Cc1c[nH]c2ccccc12)NC(=O)[C@H](CC(C)C)NC(=O)[C@H](CCCCN)NC(=O)CNC(=O)[C@H](CC(C)C)NC(=O)[C@@H](NC(=O)[C@@H](N)CCCCN)[C@@H](C)CC)C(C)C)C(=O)N[C@@H](Cc1ccccc1)C(N)=O` [KILGKLWKGVKSIF], the MIC in the assay on Escherichia coli AB94012 came out at 15.5 µM (≈ 25 µg/mL); in [11] it was 30.9 µM (≈ 50 µg/mL); in [12], 7.73 µM (≈ 12.5 µg/mL); in assay [13], 3.87 µM (≈ 6.25 µg/mL); in [14], 3.87 µM (≈ 6.25 µg/mL); in assay [8], 7.73 µM (≈ 12.5 µg/mL). Further, the MIC came out at 3.87 µM (≈ 6.25 µg/mL) in assay [15], 30.9 µM (≈ 50 µg/mL) in assay [16] and 30.9 µM (≈ 50 µg/mL) in assay [17].
As for `CC[C@H](C)[C@H](NC(=O)[C@@H](NC(=O)[C@H](CCCCN)NC(=O)[C@H](CS)NC(=O)[C@H](CCCCN)NC(=O)[C@H](CCCN=C(N)N)NC(=O)[C@H](CC(C)C)NC(=O)[C@@H](NC(=O)[C@H](CCCCN)NC(=O)[C@@H](NC(=O)[C@H](CC(C)C)NC(=O)[C@H](C)NC(=O)[C@@H](NC(=O)[C@H](Cc1ccccc1)NC(=O)CNC(=O)[C@@H]1CCCN1C(=O)[C@@H]1CCCN1C(=O)[C@@H](NC(=O)[C@H](CCC(=O)O)NC(=O)[C@H](CCCN=C(N)N)NC(=O)[C@H](CC(N)=O)NC(=O)[C@@H](N)CCC(=O)O)C(C)C)[C@@H](C)O)[C@@H](C)CC)[C@@H](C)O)[C@@H](C)CC)C(=O)O` [ENREVPPGFTALIKTLRKCKII], the MIC against Klebsiella pneumoniae stood at 4.47 µM (≈ 11.3 µg/mL); in the assay with Escherichia coli, 3.16 µM (≈ 7.99 µg/mL); against Streptococcus pneumoniae it was 4.47 µM (≈ 11.3 µg/mL); in the assay on Staphylococcus aureus, 4.47 µM (≈ 11.3 µg/mL); against Serratia marcescens, 8.95 µM (≈ 22.6 µg/mL); in the assay on Pseudomonas aeruginosa, 12.7 µM (≈ 32 µg/mL). Moreover, the MIC against Acinetobacter baumannii came out at 12.7 µM (≈ 32 µg/mL); against Enterococcus faecalis it was 4.47 µM (≈ 11.3 µg/mL); against Enterococcus faecium it was 12.7 µM (≈ 32 µg/mL); in the assay with Staphylococcus aureus MR, 4.47 µM (≈ 11.3 µg/mL); in assay [10], 12.7 µM (≈ 32 µg/mL).
Regarding `C[C@H](NC(=O)[C@H](C)NC(=O)[C@H](C)NC(=O)[C@H](Cc1c[nH]c2ccccc12)NC(=O)[C@H](C)NC(=O)[C@H](C)NC(=O)[C@H](C)NC(=O)[C@H](CCCCN)NC(=O)[C@@H](N)CCCCN)C(=O)N[C@@H](C)C(=O)N[C@@H](C)C(=O)N[C@@H](Cc1c[nH]c2ccccc12)C(=O)N[C@@H](C)C(=O)N[C@@H](C)C(=O)N[C@@H](Cc1c[nH]c2ccccc12)C(=O)N[C@@H](C)C(=O)N[C@@H](C)C(=O)N[C@@H](Cc1c[nH]c2ccccc12)C(=O)N[C@@H](C)C(=O)N[C@@H](C)C(=O)N[C@@H](C)C(=O)N[C@@H](CCCCN)C(=O)N[C@@H](CCCCN)C(=O)N[C@@H](CCCCN)C(=O)N[C@@H](CCCCN)C(N)=O` [KKAAAWAAAAAWAAWAAWAAAKKKK], the MIC with Escherichia coli DC2 was 8 µM (≈ 20.8 µg/mL); with Escherichia coli UB1005, 16 µM (≈ 41.6 µg/mL); in assay [18], 0.25 µM (≈ 0.649 µg/mL); in [19], 0.25 µM (≈ 0.649 µg/mL).

One may read the MIC as the least concentration at which growth counts as inhibited. Read a low MIC as greater potency.
